Test results: US20210405025A1, “IDENTIFYING COMPOUNDS FOR TREATING CANCER AND USE THEREOF” (THE UAB RESEARCH FOUNDATION, priority 2018, published 2021)
Like-named read-outs stand apart in the source and are kept apart here.

What was measured:
relapsed AML cells = experiment: Drug sensitivity assay, 1,536-well, 3-day culture with individual approved drugs at 10 μM, viability by alamarBlue; assay type: cell-based, human; details: number of relapsed AML cases out of 18 tested with >70% cell death; 10 μM, 3-day culture
Method in brief: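 Three-day exposure of primary AML cells to individual drugs in 1,536-well format, viability read as percent live cells. Cells were thawed, cultured overnight, sorted by FACS for viable blasts and plated at 4,000-4,500 cells/5 μL in cytokine-supplemented IMDM/BIT medium.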

AML patient samples = experiment: 10-point dose-response drug screen of statins against AML patient samples, 3-day drug sensitivity assay; assay type: cell-based, human; details: for statin-mediated killing: highly sensitive cases 285, 340 and 290, result in words; for IC50: 3-day assay
Experimental: Drug sensitivity assays were performed using a 1,536-well platform where all cells and reagents were deposited in wells using an acoustic liquid handling unit that is highly accurate for dispensing of nanoliter volumes of liquid. […] After dispensing the cells into the wells, an independent drug at a known concentration is added to each well and incubated with the cells. After three days, the percentage of live cells in each well is determined to assess the killing efficiency of each compound. […] Cell viability assays are known to those of skill in the art. See, for example, Pemovska et al., Individualized systems medicine strategy to tailor treatments for patients with chemorefractory acute myeloid leukemia. Cancer Discovery 3:1416-1429, 2013; Pabst et al., Identification of small molecules that support human leukemia stem cell activity ex vivo. Nature Methods 11:436-442, 2014; Baccelli et al., A novel approach for the identification of efficient combination therapies in primary human acute myeloid leukemia specimens. Blood Cancer Journal 7:e529, 2017. In studies described herein, the 1,536-well format was utilized, which allowed for use of four times fewer cells as well as less drug and media components due to the small assay volume of 5 microliters. […] Other compounds like CellTiter-Glo (Promega, Madison, Wis.) are equally appropriate reagents for determining cell viability.
Conditions for the drug screening assays were as described in Pabst et al., Identification of small molecules that support human leukemia stem cell activity ex vivo, Nature Methods 11:436-442, 2014). Using this protocol, cells were cultured in Iscove's Modified Dulbecco's Medium (IMDM), 15% BIT (bovine serum albumin, insulin, transferrin; Stem Cell Technologies 09500 (Vancouver, Calif.)), 100 ng/ml SCF (Shenandoah 100-04 (Warwick, Pa.)), 50 ng/ml FLT3L (Shenandoah 100-21), 20 ng/ml IL-3 (Shenandoah 100-80), 20 ng/ml G-CSF (Shenandoah 100-72), 10^-4 M β-mercaptoethanol, gentamicin (50 μg/ml) and ciprofloxacin (10 μg/ml).
Cells were removed from liquid nitrogen and placed in a 37° C. bath, just until thawed. For 1,536-well screens utilizing 6,000 wells about 100 million cells were thawed. The volume was doubled with pre-warmed culture media and placed on ice for about one to two minutes. The cells were brought to a final volume of about 8 to 10 mL before spinning down at 1,100 rpm for 5 min at 10° C. The pelleted cells were resuspended in 10 mL of culture media and plated in a tissue-culture treated T75 flask at a density of 1 to 2 million cells/ml. The cells were cultured overnight prior to fluorescence-activated cell sorting of viable cells on the following day.
After cells were cultured overnight, a cell scraper was used to remove any cells that adhered to the plastic. The cells were gently pipetted up and down to break up aggregates. Then, the entire volume was transferred to a 50 mL conical tube through a 70 micron cell strainer to remove cell clumps. The T75 flask was rinsed and scraped with about 10 mL HBSS and transferred to the same 50 mL conical tube through the strainer. The harvested cells were spun down at 1,100 rpm for 5 min at 10° C. The cells were then resuspendd in about 300-500 microliters FACS buffer (HBSS+2% FBS+1× propidium iodide) and transferred to a FACS tube. The tube was placed on ice and viable cells that are forward- and side-scatter gated on viable myeloid blasts were sorted by FACS (the scatter gate should exclude small lymphocytes, large myeloid cells, and debris). After sorting the required number of viable cells, the cells were spun down at 1,100 rpm for 5 min at 10° C. and subsequently resuspended at 4,000-4,500 cells per 5 microliter volume of complete culture media with growth factors and penicillin/streptomycin.

[1] = biological target: cGMP-inhibited phosphodiesterase (PDE3); details: cited from earlier work
[2] = read-out: In vivo cMax; plasma concentration achievable in vivo at the FDA-recommended dose and schedule; cited from earlier work
[3] = patient sample AML 280, read-out: IC50 AML 280
[4] = patient sample AML 285, read-out: IC50 AML 285
[5] = patient sample AML 290, read-out: IC50 AML 290
[6] = patient sample AML 297, read-out: IC50 AML 297
[7] = patient sample AML 299, read-out: IC50 AML 299
[8] = patient sample AML 307, read-out: IC50 AML 307
[9] = patient sample AML 330, read-out: IC50 AML 330
[10] = patient sample AML 339, read-out: IC50 AML 339
[11] = patient sample AML 340, read-out: IC50 AML 340
[12] = patient sample AML 343, read-out: IC50 AML 343
[13] = Homo sapiens, 72 h, patient sample AML 280, read-out: IC50 AML 280
[14] = Homo sapiens, 72 h, patient sample AML 285, read-out: IC50 AML 285
[15] = Homo sapiens, 72 h, patient sample AML 290, read-out: IC50 AML 290
[16] = Homo sapiens, 72 h, patient sample AML 297, read-out: IC50 AML 297
[17] = Homo sapiens, 72 h, patient sample AML 299, read-out: IC50 AML 299
[18] = Homo sapiens, 72 h, patient sample AML 307, read-out: IC50 AML 307
[19] = Homo sapiens, 72 h, patient sample AML 330, read-out: IC50 AML 330
[20] = Homo sapiens, 72 h, patient sample AML 339, read-out: IC50 AML 339
[21] = Homo sapiens, 72 h, patient sample AML 340, read-out: IC50 AML 340
[22] = Homo sapiens, 72 h, patient sample AML 343, read-out: IC50 AML 343

IC50 (AML patient samples; [14]) [µM]	IC50 (AML patient samples; [15]) [µM]	IC50 (AML patient samples; [16]) [µM]	IC50 (AML patient samples; [17]) [µM]	IC50 (AML patient samples; [18]) [µM]	IC50 (AML patient samples; [19]) [µM]	IC50 (AML patient samples; [20]) [µM]	IC50 (AML patient samples; [21]) [µM]	IC50 (AML patient samples; [22]) [µM]	SMILES	#Cases >70% cell death (relapsed AML cells)	IC50 (AML patient samples; [3]) [µM]	IC50 (AML patient samples; [4]) [µM]	IC50 (AML patient samples; [5]) [µM]	IC50 (AML patient samples; [6]) [µM]	IC50 (AML patient samples; [7]) [µM]	IC50 (AML patient samples; [8]) [µM]	IC50 (AML patient samples; [9]) [µM]	IC50 (AML patient samples; [10]) [µM]	IC50 (AML patient samples; [11]) [µM]	IC50 (AML patient samples; [12]) [µM]	also measured
									CC(C)c1c(C(=O)Nc2ccccc2)c(-c2ccccc2)c(-c2ccc(F)cc2)n1CC[C@@H](O)C[C@@H](O)CC(=O)[O-].CC(C)c1c(C(=O)Nc2ccccc2)c(-c2ccccc2)c(-c2ccc(F)cc2)n1CC[C@@H](O)C[C@@H](O)CC(=O)[O-].[Ca+2] [ATORVASTATIN CALCIUM]	12	2.24	0.475	0.584	> 10	2.9	1.09	> 10	9.12	0.732	> 10	statin-mediated killing (AML patient samples): most significant activity
3.81	4.41	> 10	> 10	> 10	> 10	> 10	8.92	> 10	CC[C@H](C)C(=O)O[C@H]1C[C@@H](C)C=C2C=C[C@H](C)[C@H](CC[C@@H]3C[C@@H](O)CC(=O)O3)[C@H]21 [LOVASTATIN]	2											IC50 (AML patient samples; [13]): > 10 µM
									CC(C)c1nc(N(C)S(C)(=O)=O)nc(-c2ccc(F)cc2)c1/C=C/[C@@H](O)C[C@@H](O)CC(=O)[O-].CC(C)c1nc(N(C)S(C)(=O)=O)nc(-c2ccc(F)cc2)c1/C=C/[C@@H](O)C[C@@H](O)CC(=O)[O-].[Ca+2] [ROSUVASTATIN CALCIUM (Crestor), ROSUVASTATIN CALCIUM]	9	8.35	1.47	1.46	> 10	> 10	3.79	> 10	> 10	2.52	> 10	
									COc1cc2c(cc1OC)-c1c/c(=N\c3c(C)cc(C)cc3C)n(C)c(=O)n1CC2.Cl [TREQUINSINçHCL]	1											IC50 [1]: 0.00025 µM
									O=C([O-])C[C@H](O)C[C@H](O)/C=C/c1c(C2CC2)nc2ccccc2c1-c1ccc(F)cc1.O=C([O-])C[C@H](O)C[C@H](O)/C=C/c1c(C2CC2)nc2ccccc2c1-c1ccc(F)cc1.[Ca+2] [PITAVASTATIN CALCIUM]	13	1.35	0.157	0.149	> 10	1.81	0.726	9.83	5.24	0.475	> 10	Cmax [2]: 250 nM; statin-mediated killing (AML patient samples): most significant activity
0.426	0.417	> 10	3.81	1.58	> 10	7.79	0.721	> 10	CC(C)n1c(/C=C/C(O)CC(O)CC(=O)O)c(-c2ccc(F)cc2)c2ccccc21 (stereo not drawn) [FLUVASTATIN]	7											Cmax [2]: 490 nM; IC50 (AML patient samples; [13]): 2.42 µM
> 10	> 10	> 10	> 10	> 10	> 10	> 10	> 10	> 10	CC[C@H](C)C(=O)O[C@H]1C[C@H](O)C=C2C=C[C@H](C)[C@H](CC[C@@H](O)C[C@@H](O)CC(=O)O)[C@H]21 [PRAVASTATIN]	1											IC50 (AML patient samples; [13]): > 10 µM
> 10	> 10	6.94	> 10	> 10	> 10	5.08	> 10	> 10	CCC(C)(C)C(=O)O[C@H]1C[C@@H](C)C=C2C=C[C@H](C)[C@H](CC[C@@H]3C[C@@H](O)CC(=O)O3)[C@H]21 [SIMVASTATIN]	6											
									CCCCCCCCNC(C)C(O)c1ccc(SC(C)C)cc1 (stereo not drawn) [SULOCTIDIL]	12											
									Nc1nc(F)nc2c1ncn2[C@@H]1O[C@H](COP(=O)(O)O)[C@@H](O)[C@@H]1O [FLUDARABINE PHOSPHATE]	4											
